The assay relates to K24384-001-R-PDC complex spheroid viability. Description: Anticancer human tumor K24384-001-R-PDC patient-derived pancreatic adenocarcinoma cell line growth inhibition. Particulars: for viability, T/C: stronger effect = lower value. The procedure, abridged: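 Drug combinations with the LSD1 inhibitor iadademstat tested on tumor cells co-cultured as spheroids with endothelial cells and mesenchymal stem cells. Concentrations descended in half-log increments from clinical Cmax or 10 microM.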

The mark [1] stands for this setting: curve of first compound, second compound 0.1 µM.
[2] abbreviates: curve of first compound, second compound 0.316 µM.
Where [3] appears, read: curve of first compound, second compound 1 µM.
Setting [4] is: curve of first compound, second compound 3.16 µM.
[5] abbreviates: curve of first compound, second compound 10 µM.
The mark [6] stands for this setting: second compound 0.1 µM, first compound 0.00949 µM.
Where [7] appears, read: second compound 0.1 µM, first compound 0.03 µM.
[8] abbreviates: second compound 0.1 µM, first compound 0.0949 µM.
Setting [9] is: second compound 0.1 µM, first compound 0.3 µM.
[10] abbreviates: second compound 0.1 µM, first compound 0.949 µM.
[11] abbreviates: second compound 0.1 µM, first compound 3 µM.
The mark [12] stands for this setting: second compound 0.316 µM, first compound 0.00949 µM.
Setting [13] is: second compound 0.316 µM, first compound 0.03 µM.
Where [14] appears, read: second compound 0.316 µM, first compound 0.0949 µM.
Setting [15] is: second compound 0.316 µM, first compound 0.3 µM.
[16] abbreviates: second compound 0.316 µM, first compound 0.949 µM.
Setting [17] is: second compound 0.316 µM, first compound 3 µM.
Where [18] appears, read: second compound 1 µM, first compound 0.00949 µM.
Where [19] appears, read: second compound 1 µM, first compound 0.03 µM.
Setting [20] is: second compound 1 µM, first compound 0.0949 µM.
[21] abbreviates: second compound 1 µM, first compound 0.3 µM.
[22] abbreviates: second compound 1 µM, first compound 0.949 µM.
Where [23] appears, read: second compound 1 µM, first compound 3 µM.
Setting [24] is: second compound 3.16 µM, first compound 0.00949 µM.
Setting [25] is: second compound 3.16 µM, first compound 0.03 µM.
Where [26] appears, read: second compound 3.16 µM, first compound 0.0949 µM.
[27] abbreviates: second compound 3.16 µM, first compound 0.3 µM.
[28] abbreviates: second compound 3.16 µM, first compound 0.949 µM.
Where [29] appears, read: second compound 3.16 µM, first compound 3 µM.
Setting [30] is: second compound 10 µM, first compound 0.00949 µM.
The mark [31] stands for this setting: second compound 10 µM, first compound 0.03 µM.
[32] abbreviates: second compound 10 µM, first compound 0.0949 µM.
[33] abbreviates: second compound 10 µM, first compound 0.3 µM.
[34] abbreviates: second compound 10 µM, first compound 0.949 µM.
[35] abbreviates: second compound 10 µM, first compound 3 µM.

“And” between values parts separate entries of the source, which are not always exact repeats. Identical values can stand only once. Bounds are passed on as bounds.
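Note: spheroids exposed to agents for seven days before luminescence viability reading.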
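Throughout, for viability, T/C: 100% = DMSO vehicle control viability.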

One may read the IC50 as the concentration that inhibits the measured activity by half. A word on the viability, T/C: it is the ratio of treated to control. Regarding `NS(=O)(=O)OCC1CC(n2ccc3c(NC4CCc5ccccc54)ncnc32)CC1O` (centres undefined) + NC1CCC(NC2CC2c2ccccc2)CC1, the IC50 was 0.506 µM under setting [1]; 0.517 µM under setting [2]; 0.412 µM under setting [3]; 0.445 µM under setting [4]; 0.441 µM under setting [5]. The viability, T/C was 98.6% under setting [6]; 138% under setting [7]; 125% under setting [8]; 64.8% under setting [9]; 38.5% under setting [10]; 26.1% under setting [11]. Also, the viability, T/C is, setting by setting: under setting [12], 87.6%; under setting [13], 142%; under setting [14], 144%; under setting [15], 67.9%; under setting [16], 34.1%; under setting [17], 26.1%. In addition, the viability, T/C under setting [18] is 109%; the viability, T/C under setting [19] is 138%; the viability, T/C under setting [20] is 124%; the viability, T/C under setting [21] is 56.6%; the viability, T/C under setting [22] is 37.8%; the viability, T/C under setting [23] was 27.2%. Also, the viability, T/C was 93.2% under setting [24]; 138% under setting [25]; 118% under setting [26]; 59.7% under setting [27]; 37.1% under setting [28]; 25.9% under setting [29]. Moreover, the viability, T/C under setting [30] was 91.2%; the viability, T/C under setting [31] is 116%; the viability, T/C under setting [32] is 95.7%; the viability, T/C under setting [33] is 58.4%; the viability, T/C under setting [34] was 31.9%; the viability, T/C under setting [35] was 13.2%.

On to `Nc1ccccc1NC(=O)c1ccc(CNC(=O)OCc2cccnc2)cc1` + NC1CCC(NC2CC2c2ccccc2)CC1, for which the IC50 under setting [1] is 0.376 µM; the IC50 under setting [2] worked out at 0.444 µM; the IC50 under setting [3] is 0.447 µM; the IC50 under setting [4] turned out to be 0.401 µM; the IC50 under setting [5] came out at 0.321 µM. Moreover, the viability, T/C reads like this: under setting [6], 86.6%; under setting [7], 84.9%; under setting [8], 76.2%; under setting [9], 61.3%; under setting [10], 5.83%; under setting [11], 0.14%. Besides, the viability, T/C is 79.7% under setting [12]; 82.1% under setting [13]; 83.7% under setting [14]; 70.8% under setting [15]; 9.57% under setting [16]; 0.15% under setting [17]. For the same compound, the viability, T/C is 80.3% under setting [18]; 89% under setting [19]; 92% under setting [20]; 70.6% under setting [21]; 10.4% under setting [22]; 0.13% under setting [23]. For the same compound, the viability, T/C is 79.9% under setting [24]; 88.2% under setting [25]; 80.2% under setting [26]; 65.2% under setting [27]; 5.24% under setting [28]; 0.16% under setting [29]. The viability, T/C is 84.1% under setting [30]; 90.7% under setting [31]; 88.7% under setting [32]; 53% under setting [33]; 1.77% under setting [34]; 0.2% under setting [35].

As for `CC1(C)CCC(CN2CCN(c3ccc(C(=O)NS(=O)(=O)c4ccc(NCC5CCOCC5)c([N+](=O)[O-])c4)c(Oc4cnc5[nH]ccc5c4)c3)CC2)=C(c2ccc(Cl)cc2)C1` + NC1CCC(NC2CC2c2ccccc2)CC1, the IC50 is, setting by setting: under setting [1], 3.08 µM; under setting [2], 2.74 µM; under setting [3], 2.28 µM; under setting [4], 3.11 µM; under setting [5], 3.73 µM. Besides, the viability, T/C is, setting by setting: (second compound 0.1 µM, first compound 0.0316 µM) 80.2%; (second compound 0.1 µM, first compound 0.1 µM) 95.5%; (second compound 0.1 µM, first compound 0.316 µM) 85%; (second compound 0.1 µM, first compound 1 µM) 89.8%; (second compound 0.1 µM, first compound 3.16 µM) 49.1%; (second compound 0.1 µM, first compound 10 µM) 0.77%. For the same compound, the viability, T/C was 79.5% (second compound 0.316 µM, first compound 0.0316 µM); 90.2% (second compound 0.316 µM, first compound 0.1 µM); 88.9% (second compound 0.316 µM, first compound 0.316 µM); 94.5% (second compound 0.316 µM, first compound 1 µM); 44.6% (second compound 0.316 µM, first compound 3.16 µM); 0.44% (second compound 0.316 µM, first compound 10 µM). Besides, the viability, T/C runs as follows: (second compound 1 µM, first compound 0.0316 µM) 84%; (second compound 1 µM, first compound 0.1 µM) 86%; (second compound 1 µM, first compound 0.316 µM) 81.6%; (second compound 1 µM, first compound 1 µM) 81.6%; (second compound 1 µM, first compound 3.16 µM) 37.6%; (second compound 1 µM, first compound 10 µM) 0.69%. Besides, the viability, T/C was 87.3% (second compound 3.16 µM, first compound 0.0316 µM); 72.9% (second compound 3.16 µM, first compound 0.1 µM); 77.3% (second compound 3.16 µM, first compound 0.316 µM); 92.2% (second compound 3.16 µM, first compound 1 µM); 49.6% (second compound 3.16 µM, first compound 3.16 µM); 0.87% (second compound 3.16 µM, first compound 10 µM). In addition, the viability, T/C was 73.9% (second compound 10 µM, first compound 0.0316 µM); 92.9% (second compound 10 µM, first compound 0.1 µM); 77.8% (second compound 10 µM, first compound 0.316 µM); 76.9% (second compound 10 µM, first compound 1 µM); 58.4% (second compound 10 µM, first compound 3.16 µM); 0.69% (second compound 10 µM, first compound 10 µM).

As for `Cn1ncnc1C1c2n[nH]c(=O)c3cc(F)cc(c23)NC1c1ccc(F)cc1` (centres undefined), the viability, T/C runs as follows: (compound 0.000316 µM) 108% and 99.6%; (compound 0.001 µM) 105% and 115%; (compound 0.00316 µM) 87.1% and 102%; (compound 0.01 µM) 93.5% and 95%; (compound 0.0316 µM) 90.6% and 95.1%; (compound 0.1 µM) 80.4% and 76.9%. In addition, the IC50 (curve of compound) is > 0.1 µM.

In the case of `CC[C@@]1(O)C(=O)OCc2c1cc1n(c2=O)Cc2cc3c(CN(C)C)c(O)ccc3nc2-1`, the viability, T/C is 107% and 94.3% (compound 0.000316 µM); 107% and 78.8% (compound 0.001 µM); 83.1% and 87.1% (compound 0.00316 µM); 73% and 57.5% (compound 0.01 µM); 61.3% and 49.8% (compound 0.0316 µM); 49.9% and 42.5% (compound 0.1 µM). Besides, the 50% inhibitory concentration (IC50) (curve of compound) was > 0.1 µM and 0.0214 µM.

The record behind these values is PubChem BioAssay AID1918949 (Molecular Pharmacology Branch, DTP, NCI, 2023).
